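Grown in 96-well plates, cells were treated for 48 hours with each compound at five concentrations. Insufficient inhibition: endpoint recorded as highest concentration tested. Here, GI50 denotes the concentration required for 50% inhibition of growth.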 Active and inactive are the calls of the source. Cut-off read from the data, not from the text of the source: active = GI50 up to about 1.1 µM and inactive = higher.
Key:
Experiment in all cases: NCI tumour cell line growth inhibition, 48 h
SNB-78 = system: SNB-78
LXFL 529 = system: LXFL 529
KM-20L2 = system: KM-20L2
XF498 = system: XF498
DLD-1 = system: DLD-1
DMS-273 = system: DMS-273
M19-MEL = system: M19-MEL
RXF 631 = system: RXF 631
HOP-18 = system: HOP-18

| SMILES | GI50 (SNB-78) | GI50 (LXFL 529) | GI50 (KM-20L2) | GI50 (XF498) | GI50 (DLD-1) | GI50 (DMS-273) | GI50 (M19-MEL) | GI50 (RXF 631) | GI50 (HOP-18) |
| --- | --- | --- | --- | --- | --- | --- | --- | --- | --- |
| O=[N+]([O-])c1ccc(C2N3CCCCC3[C@H]3CCCCN23)cc1 (some centres not stated) | > 100 µM (inactive) | > 100 µM (inactive) | > 100 µM (inactive) | > 100 µM (inactive) | > 100 µM (inactive) | > 100 µM (inactive) | > 100 µM (inactive) | > 100 µM (inactive) | > 100 µM (inactive) |
| CCOc1ccccc1NC(=O)CC1C(=O)Nc2ccccc2[S+]1[O-] (configuration not stated) | > 100 µM (inactive) | 56.8 µM (inactive) | > 100 µM (inactive) | 44.8 µM (inactive) | > 100 µM (inactive) | 66.5 µM (inactive) | > 100 µM (inactive) | – | – |
| COC(=O)C(=O)C(/C(=N/N)C(=O)Nc1ccccc1C(N)=O)c1nc2ccc([N+](=O)[O-])cc2nc1O (configuration not stated) | > 100 µM (inactive) | > 100 µM (inactive) | > 100 µM (inactive) | > 100 µM (inactive) | > 100 µM (inactive) | > 100 µM (inactive) | > 100 µM (inactive) | – | – |
| O=Cn1c2ccccc2c2ccccc21 | > 100 µM (inactive) | > 100 µM (inactive) | > 100 µM (inactive) | 36.1 µM (inactive) | > 100 µM (inactive) | > 100 µM (inactive) | > 100 µM (inactive) | – | 9.64 µM (inactive) |
| COc1cc2c3c(c1OC)-c1cc4c(cc1CC3(C#N)N(C(=O)c1ccccc1)CC2)OCO4 (configuration not stated) | 11.4 µM (inactive) | 17.7 µM (inactive) | > 80.9 µM (inactive) | 6.25 µM (inactive) | > 55.7 µM (inactive) | 21.6 µM (inactive) | 46.8 µM (inactive) | – | 21.2 µM (inactive) |
| CCCCNC1CCCCC[C@H]1O (some centres not stated) | > 100 µM (inactive) | > 100 µM (inactive) | > 100 µM (inactive) | – | > 100 µM (inactive) | > 100 µM (inactive) | > 100 µM (inactive) | – | > 100 µM (inactive) |
| Nc1nc2c(ncn2CCOC(c2ccccc2)P(=O)(O)O)c(=O)[nH]1 (configuration not stated) | > 100 µM (inactive) | > 100 µM (inactive) | > 100 µM (inactive) | – | > 100 µM (inactive) | > 100 µM (inactive) | – | – | – |
| CCCCCCCCCCCC[N+]12CC[N+](C)(CC1)CC2 | 26.4 µM (inactive) | 25.7 µM (inactive) | 14.9 µM (inactive) | 20.7 µM (inactive) | 13.8 µM (inactive) | 3.69 µM (inactive) | 19.5 µM (inactive) | – | 43.6 µM (inactive) |
| CC(=O)c1c(C)[n+]([O-])c2cc(C)c(C)cc2[n+]1[O-] | > 100 µM (inactive) | > 100 µM (inactive) | > 100 µM (inactive) | > 100 µM (inactive) | > 100 µM (inactive) | > 100 µM (inactive) | > 100 µM (inactive) | > 100 µM (inactive) | > 100 µM (inactive) |
| CC(C)NC(=O)OCc1nnn2c1C(OC(=O)NC(C)C)CC2 (configuration not stated) | > 100 µM (inactive) | > 100 µM (inactive) | > 100 µM (inactive) | > 100 µM (inactive) | > 100 µM (inactive) | > 100 µM (inactive) | > 100 µM (inactive) | > 100 µM (inactive) | > 100 µM (inactive) |
| O=C1OC2(OC2c2ccccc2)c2ccccc21 (configuration not stated) | – | > 100 µM (inactive) | > 100 µM (inactive) | > 100 µM (inactive) | > 100 µM (inactive) | > 100 µM (inactive) | > 100 µM (inactive) | – | – |
| COc1cc(C2c3cc4c(cc3[C@H](NC(=O)c3cccs3)C3COC(=O)[C@H]23)OCO4)cc(OC)c1OC (some centres not stated) | > 100 µM (inactive) | 0.0296 µM (active) | 0.0199 µM (active) | – | 0.0297 µM (active) | 0.0188 µM (active) | – | – | > 100 µM (inactive) |
| COc1ccc(C2C(Cl)C(=O)N2n2cnc3ccccc3c2=O)cc1 (configuration not stated) | > 100 µM (inactive) | 62.1 µM (inactive) | > 100 µM (inactive) | > 100 µM (inactive) | > 100 µM (inactive) | 82.4 µM (inactive) | 76 µM (inactive) | – | 24.2 µM (inactive) |
| S=c1[nH]c(=S)c2nnn(-c3ccccc3)c2[nH]1 | – | > 100 µM (inactive) | > 100 µM (inactive) | > 100 µM (inactive) | > 100 µM (inactive) | > 100 µM (inactive) | > 100 µM (inactive) | – | – |
| COc1ccc(OC)c(CCc2cc(OC)c(OC)cc2C)c1 | 7.52 µM (inactive) | 30.1 µM (inactive) | 49.8 µM (inactive) | 77.6 µM (inactive) | 4.7 µM (inactive) | – | 5.51 µM (inactive) | – | – |
| COc1ccccc1C1C(C(=O)Nc2ccccc2)=C(C)NC(C)=C1C(=O)Nc1ccccc1 | > 100 µM (inactive) | 61.5 µM (inactive) | 94.8 µM (inactive) | 36.3 µM (inactive) | – | 34 µM (inactive) | 50.6 µM (inactive) | 62.8 µM (inactive) | > 100 µM (inactive) |
| O=C(NCc1ccccc1)c1cc2ccc(O)c(O)c2cn1 | 18.1 µM (inactive) | 16.9 µM (inactive) | > 100 µM (inactive) | 17.4 µM (inactive) | 18.5 µM (inactive) | 17.4 µM (inactive) | 1.8 µM (inactive) | – | 20.7 µM (inactive) |
| CCc1cccc(C)c1NC(=O)C1=C(C)NC(C)=C(C(=O)Nc2c(C)cccc2CC)C1c1ccc2c(c1)OCO2 | 25.8 µM (inactive) | 18.2 µM (inactive) | 23.9 µM (inactive) | 15.7 µM (inactive) | 20.5 µM (inactive) | – | 21.4 µM (inactive) | 20 µM (inactive) | – |
| Cc1c(Cl)ccc2c1NC(=O)C2(O)CC(=O)c1ccc(Cl)cc1Cl (configuration not stated) | 21.8 µM (inactive) | 27.8 µM (inactive) | > 50 µM (inactive) | 16.7 µM (inactive) | – | > 50 µM (inactive) | > 50 µM (inactive) | 31 µM (inactive) | – |
| O=C1OCc2nc3c(c(-c4ccccc4C(F)(F)F)c21)C(=O)OC3 | > 100 µM (inactive) | > 100 µM (inactive) | > 100 µM (inactive) | – | > 100 µM (inactive) | > 100 µM (inactive) | > 100 µM (inactive) | – | > 100 µM (inactive) |
| COc1ccc(C2=Nc3ccccc3SC(C)C2)cc1 (configuration not stated) | > 100 µM (inactive) | 85.1 µM (inactive) | > 100 µM (inactive) | – | 81.8 µM (inactive) | 78.7 µM (inactive) | 94.6 µM (inactive) | 68.4 µM (inactive) | – |
| CCC1C(=O)OCc2c1cc1n(c2=O)Cc2ccccc2-1 (configuration not stated) | > 100 µM (inactive) | > 100 µM (inactive) | > 100 µM (inactive) | > 100 µM (inactive) | > 100 µM (inactive) | > 100 µM (inactive) | > 100 µM (inactive) | > 100 µM (inactive) | > 100 µM (inactive) |

From ChEMBL document CHEMBL1201862, “PubChem BioAssay data set” (2004)
